Assays:
[1] = biological target: T1, mTORC2 (Homo sapiens, UniProt P42345); assay: LocaTOR2 assay in A549 cells (FRB-AKT2 Ser473 phosphorylation); assay type: cell-based; design: endogenous in cells; host or cells: A549 (transfected only with the FKBP-recruiter and the FRB-AKT2 reporter); details: A549, KRas4B^C30-FKBP recruiter, AP21967; norathyriol at 30 μM and 60 μM; FIG. 9a
From the text: mTORC2 is located in the cell membrane, endosome, ER and mitochondrial membrane. mTORC2 forms an mTORC2 complex as an activated form of ras (ras-GTP) operates as a scaffold in the cell membrane, whereas it forms an mTORC2 complex as mLST8 operates as a scaffold in the endosome. By this difference, the mTORC2 inhibitory effect of norathyriol may be shown differently depending on the subcellular compartment where mTORC2 is located. In order to investigate the mTORC2 inhibitory effect of norathyriol depending on the subcellular compartment location, in vivo LocaTOR2 assay was performed (Ebner et al. (2017) J. Cell Biol. 216:343-353). After introducing FKBP-recruiter selectively located in the membrane of the subcellular compartment and FRB^T2098L-AKT2 which is an mTORC2 substrate, AP21967 was treated for 40 minutes to induce binding between the FKBP-recruiter and FRB-AKT2, and FRB-AKT2 was moved to a specific subcellular compartment. In addition, the degree of phosphorylation of Ser473 of FRB-Akt by mTORC2 located in the site thereof was investigated by immunoblot analysis.

[2] = biological target: T2, mTORC1 (Homo sapiens, UniProt P42345); assay: In vitro mTORC1 kinase assay (GST-S6K Thr389 phosphorylation, immunoblot); assay type: biochemical; details: assay validation with dual mTOR inhibitor
T2 construct: mTORC1 was isolated by co-immunoprecipitation using Flag antibody; made in house; host or cells: HEK 293T transfected with Flag-Raptor
Procedure: In order to investigate the effect on mTORC1 activity of norathyriol, in vitro mTORC1 kinase assay was performed. After introducing Flag-Raptor into a human cell line 293T, mTORC1 was isolated by co-immunoprecipitation using Flag antibody. In addition, the activity of the isolated mTORC1 complex was evaluated by measuring phosphorylation of GST-S6K Thr389, which is a selective substrate of mTORC1, by immunoblot analysis. In the control group in which Flag-Raptor was not introduced, GST-S6K Thr389 phosphorylation was almost not measured. […] Therefore, it was judged that GST-S6K Thr389 phosphorylation measured in the in vitro mTORC1 kinase assay was generated by mTORC1. In order to evaluate the inhibitory effect of norathyriol on mTORC1 activity, norathyriol was pretreated for 15 minutes, and then in vitro mTORC1 kinase assay was carried out.
More specifically, the HEK 293T cells were cultured in a DMEM culture medium in which 10% heat inactivated FBS+1× Glutamax was added. 8×10^5 HEK 293T cells were seeded in a 100 mm culture dish, and then they were cultured for 1 day. After mixing 42 μl Lipofectamine, 21 μl plus reagent, and 21 μg Flag-Raptor plasmid DNA to 1 ml OPTI-MEM, it was shaken at a room temperature for 25 minutes to prepare a transfection DNA mixture. The transfection DNA mixture was slowly treated on the cells drop by drop, and after culturing for 5 hours, the culture medium was replaced with a new culture medium. […] The protein concentration of the cell lysate was determined with BCA protein assay kit (Thermo Fisher Scientific). […] Thr389 phosphorylation of GST-S6K1, which is a substrate of mTORC1, was measured by performing immunoblot analysis using phospho Thr389 p70 S6 kinase antibody (#9205S, Cell Signaling) and GST antibody (#A190-122A, Bethyl Laboratories). […]

[3] = biological target: T1, mTORC2; assay: In vitro mTORC2 kinase assay (GST-Akt Ser473 phosphorylation, immunoblot); assay type: biochemical; design: mTORC was isolated by co-immunoprecipitation using Flag antibody; made in house; host or cells: HEK 293T transfected with Flag-mLST8; details: assay validation with dual mTOR inhibitor
Procedure: After introducing Flag-mLST8 into a human cell line 293T, mTORC was isolated by co-immunoprecipitation using Flag antibody. In the in vitro mTORC2 kinase assay, the activity of the isolated mTORC2 was evaluated by measuring phosphorylation of GST-Akt Ser473, which is a selective substrate of mTORC2 by immunoblot analysis. In the control group in which Flag-mLST8 was not introduced, GST-Akt Ser473 phosphorylation was almost not measured. […] Therefore, it was judged that GST-Akt Ser473 phosphorylation measured in the in vitro mTORC2 kinase assay was generated by mTORC2. In order to evaluate the inhibitory effect of norathyriol and athyriol on mTORC2 activity, norathyriol or athyriol was pretreated for 15 minutes, and then in vitro mTORC2 kinase assay was carried out.
More specifically, the HEK 293T cells were cultured in a DMEM culture medium in which 10% heat inactivated FBS+1× Glutamax was added. 8×10^5 HEK 293T cells were seeded in a 100 mm culture dish, and then they were cultured for 1 day. After mixing 42 μl Lipofectamine, 21 μl plus reagent, and 21 μg Flag-mLST8 plasmid DNA to 1 ml OPTI-MEM, it was shaken at a room temperature for 25 minutes to prepare a transfection DNA mixture. The transfection DNA mixture was slowly treated on the cells drop by drop, and after culturing for 5 hours, the culture medium was replaced with a new culture medium. After additional culturing for 48 hours, the cells were […] with CHAPS buffer (50 mM HEPES (pH7.4), 100 mM NaCl, 2 mM EDTA, 0.3% CHAPS, 10 mM sodium pyrophosphate, 10 mM sodium β-glycerophosphate, 1 mM PMSF, 1 μg/ml leupeptin, 1 μg/ml pepstatin A, 10 nM aprotinin, 1 mM Na3VO4, 10 nM calyculin A), and centrifuged at 4° C. at 13,000 rpm for 10 minutes to obtain the supernatant and acquire cell lysate. The protein concentration of the cell lysate was determined with BCA protein assay kit (Thermo Fisher Scientific). After adding anti-Flag M2 affinity gel (50% slurry, Sigma) of 30 μl to the cell lysate of 1 mg, it was shaken at 4° C. for 3 hours. After that, affinity gel was washed with CHAPS buffer 3 times and kinase buffer (50 mM HEPES (pH7.5), 2 mM DTT, 10 mM MnCl2, 10 mM MgCl2) for washing once. After adding kinase buffer [-substrate-ATP] […] After that, kinase buffer (50 mM HEPES (pH7.5), 2 mM DTT, 10 mM MgCl2, 10 mM MnCl2, 1 mM ATP, 500 ng GST-AKT, 10 nM calyculin A) of 10 μl was added and shaken at 30° C. for 45 minutes to progress a kinase reaction. […] Ser473 phosphorylation of GST-AKT, which is a substrate of mTORC2, was measured by performing immunoblot analysis using AKT antibody (#4691, Cell signaling) and phospho Ser473 AKT antibody (#4060, Cell signalig). In order to measure the mTORC2 activity inhibitory effect by the compound, both the kinase buffer [-substrate-ATP] and the kinase buffer included the compound.

[4] = biological target: T3, mTORC2 located in late endosome of dendritic spines (Rattus norvegicus, UniProt P42346); assay: LocaTOR2 assay-immunofluorescent staining in primary cultured cerebral neurons (mGluR-dependent mTORC2 activation); assay type: cell-based; details: FIG. 11a
T3 construct: endogenous in cells; host or cells: primary cultured cerebral neurons from SD-rat E16 embryos, transduced by lentivirus only with mCherry-FRB-AKT2 and Rab7-FKBP
From the text: By combining Loca-TOR2 assay and immunofluorescence staining, changes in mTORC2 activity located in the late endosome during the induction process of long term depression (LTD) occurring in dendritic spines of primarily cultured cerebral neurons were investigated, and the inhibitory effect of norathyriol on these changes was investigated.
Specifically, mCherry-FRB-AKT2 and Rab7-FKBP were introduced using a lentiviral vector on the primarily cultured cerebral neuron on the DIV5 day, and AP21967 was treated on the DIV17 day to induce binding of FRB and FKBP, and thereby, mCherry-FRB-AKT2 was located in the late endosome. After that, DHPG, which is an mGluR agonist inducing long-term depression, was treated. […] In addition, by measuring Ser473 phosphorylation staining of mCherry-FRB-AKT2 overlapped with PSD-95 staining, which is a protein located in dendritic spines, by immunofluorescent staining, changes in mTORC2 activity located in the late endosome in the dendritic spines can be investigated. After staining using a phospho-Ser473 AKT antibody by immunofluorescent staining, the degree of AKT Ser473 phosphorylation was quantified by counting the number of each fluorescent puncta larger than 0.4 μm or more in size in the dendrites (green). In addition, the dendritic spines were observed by staining with PSD95 antibody (yellow), and the location of mCherry-FRB-AKT2 was investigated by observing mCherry fluorescence (cherry color).
SD-rat gestational age 16-day mice (Orient Bio) were purchased and the mice were anesthetized with CO2 and then embryos were taken out. Until the forebrain was isolated and the meninges were removed, it was performed by the same method as the hippocampal culture, and when the cerebrum was isolated, the dorsal cortex or ventral cortex was cut with a bended syringe needle, and it was collected in new HBSS. The tissue isolated and collected was transferred to a 15 ml tube with a Pasteur pipette, and then in order to remove the remaining meninges and blood vessels, and the like, 2 ml HBSS and 0.25% trypsin of 2 ml were added, and it was reacted in a 37° C. shaker for 10-15 minutes. The cells were settled and the supernatant was removed leaving 1-2 ml, and then trypsin was inactivated by adding DMEM comprising the equal amount of 20% FBS. After centrifugation at 700 rpm for 15 minutes, the supernatant was discarded all and the collected tissue was released, and then Neurobasal culture medium (+glutamate) of 2 ml was added, and titrated with a pipette, and the cells were isolated by changing to a pipette with a narrow end. […] The number of cells was measured with a hemocytometer, and then the cells were seeded in a coated culture dish. […]

[5] = tested on: Arc protein expression; assay: mGluR-dependent Arc protein expression in cerebral neurons; assay type: cell-based; details: DHPG alone; FIG. 12a
Procedure: When mGluR is activated in dendritic spines of cerebral neurons, Arc protein is synthesized, and the Arc protein promotes endocytosis of an AMPA receptor to form LTD.
Specifically, DHPG was treated to cerebral neurons, which were obtained by primary culture of white mouse embryo E16 cerebral regions and differentiated for […] (DIV21), for 5 minutes or 10 minutes to activate mGluR. As an Arc antibody, Arc protein (green) and PSD95 (red), which is a marker antibody of postsynaptic density of a synapse, were under
After double immunofluorescent staining of Arc protein with an Arc antidody (green) and PSD95, a marker of postsynaptic density of synapse, with an PSD95 antibody (red), Arc expression in dendritic spines was quantified as the number of Arc+PSD95 double stained puncta per 20 μm neurite length by confocal scanning microscopic scanning.

| Structure (SMILES) | FRB-AKT2 Ser473 phosphorylation, mTORC2 located in cell membrane [1] | GST-S6K Thr389 phosphorylation [2] | GST-Akt Ser473 phosphorylation [3] | increase of Ser473 phosphorylation of mCherry-FRB-AKT2 located in late endosome of dendritic spines ([4]; after 5 minutes of treating DHPG) [%] | increase of Ser473 phosphorylation of mCherry-FRB-AKT2 located in late endosome of dendritic spines ([4]; after 10 minutes of treating DHPG) [%] | Ser473 phosphorylation of mCherry-FRB-AKT2 located in late endosome of dendritic spines ([4]; after 20 minutes of treating DHPG) | Arc synthesis in dendritic spines (immunofluorescent staining) [5] |
| --- | --- | --- | --- | --- | --- | --- | --- |
| COc1ccc(-c2ccc3c(N4CCOC[C@@H]4C)nc(N4CCOC[C@@H]4C)nc3n2)cc1CO [AZD8055, reference compound] | reduced the phosphorylation of FRB-AKT2 Ser473 to a level of the control group | mostly reduced | mostly reduced |  |  |  |  |
| NC(C(=O)O)c1cc(O)cc(O)c1 (stereo not shown) [DHPG, 3,5-dihydroxyphenylglycine] |  |  |  | 55 | 72 | reduced to the level of the control group | increased up to 10 minutes after treating DHPG |

From patent US20240366555A1, “SELECTIVE MTORC2 INHIBITOR AND USES THEREOF” (ALIAD BIOPHARMA, priority 2021, published 2024)
